Results on 30 molecules are retold here after patent US20240150293A1, “SPIROCYCLOHEXANE DERIVATIVES, PHARMACEUTICAL COMPOSITIONS CONTAINING THEM AND THEIR USES AS ANTI-APOPTOTIC INHIBITORS” (LES LABORATOIRES SERVIER, priority 2021, published 2024).

The target in the assay is Mcl-1 protein (UniProtKB Q07820) (Homo sapiens (Human), UniProt Q07820). The experiment in a line: Inhibition of Mcl-1 by the fluorescence polarisation assay (Example A, Method A). To be noted: fluorescence polarization assay. In kind it is binding. Summed up: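 Protein (5 nM) and fluorescein-tagged peptide tracer (1 nM) incubated with 11-point compound series for 2 h at room temperature in HEPES/NaCl/Tween 20 buffer, pH 7.4, 5% DMSO. Displacement read as decrease in polarisation; IC50 fitted by 4-parameter logistic, converted to Ki (cKi or eKi).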
Sequence of Mcl-1 protein (Q07820 whole entry): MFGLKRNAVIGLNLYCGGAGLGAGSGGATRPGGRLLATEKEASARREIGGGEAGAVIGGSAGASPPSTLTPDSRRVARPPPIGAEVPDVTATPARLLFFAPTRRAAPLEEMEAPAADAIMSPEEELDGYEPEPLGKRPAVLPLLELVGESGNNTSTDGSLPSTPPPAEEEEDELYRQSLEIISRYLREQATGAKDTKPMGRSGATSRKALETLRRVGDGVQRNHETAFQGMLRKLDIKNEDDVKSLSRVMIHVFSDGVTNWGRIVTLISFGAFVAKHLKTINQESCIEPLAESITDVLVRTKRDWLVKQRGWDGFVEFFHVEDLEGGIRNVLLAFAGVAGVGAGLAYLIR

One may read the Ki as the equilibrium dissociation constant of an inhibitor or competing ligand from its target.

With `O=C(O)[C@]1(Nc2cccc(Cl)c2)CC[C@]2(CC1)C(c1cccc(Cl)c1)=Cc1ccccc12` [Example 334, (1s,4s)-4-(3-chloroanilino)-2′-(3-chlorophenyl)spiro[cyclohexane-1,1′-indene]-4-carboxylic acid], the Ki turned out to be 2000 nM. Take `Cc1cccc(C2=Cc3ccccc3[C@]23CC[C@@](Nc2cccc(Cl)c2)(C(=O)O)CC3)c1` [Example 335, (1s,4s)-4-(3-chloroanilino)-2′-(3-methylphenyl)spiro[cyclohexane-1,1′-indene]-4-carboxylic acid]: the inhibitory constant (Ki) was 889 nM.

For the molecule `COc1cc(OC)cc([C@@H]2Cc3ccccc3[C@]23CC[C@@](Nc2cccc(Cl)c2)(C(=O)O)CC3)c1` [Example 336, (1r,2′S,4S)-4-(3-chloroanilino)-2′-(3,5-dimethoxyphenyl)-2′,3′-dihydrospiro[cyclohexane-1,1′-indene]-4-carboxylic acid], the inhibition constant (Ki) came out at 2440 nM. Consider `O=C(O)[C@]1(Nc2cccc(Cl)c2)CC[C@@]2(CC1)c1ccccc1C[C@@H]2c1cc2ccccc2o1` [Example 338, (1r,2′S,4S)-2′-(1-benzofuran-2-yl)-4-(3-chloroanilino)-2′,3′-dihydrospiro[cyclohexane-1,1′-indene]-4-carboxylic acid], for which the Ki is 5690 nM.

With `O=C(O)[C@]1(Nc2cccc(Cl)c2)CC[C@]2(CC1)C(c1cccc(OCC3CC3)c1)=Cc1ccccc12` [Example 339, (1s,4s)-4-(3-chloroanilino)-2′-[3-(cyclopropylmethoxy)phenyl]spiro[cyclohexane-1,1′-indene]-4-carboxylic acid], the Ki was determined as 154 nM.

For the molecule `O=C(O)[C@]1(Nc2cccc(Cl)c2)CC[C@]2(CC1)C(c1cccc3occc13)=Cc1ccccc12` [Example 340, (1s,4s)-2′-(1-benzofuran-4-yl)-4-(3-chloroanilino)spiro[cyclohexane-1,1′-indene]-4-carboxylic acid], the inhibition constant Ki amounted to 921 nM. In the case of `O=C(O)[C@]1(Nc2cccc(Cl)c2)CC[C@]2(CC1)C(c1ccc(Oc3ccncc3)cc1)=Cc1ccccc12` [Example 342, (1s,4s)-4-(3-chloroanilino)-2′-{4-[(pyridin-4-yl)oxy]phenyl}spiro[cyclohexane-1,1′-indene]-4-carboxylic acid] it was 785 nM; in that of `O=C(O)[C@]1(Nc2cccc(Cl)c2)CC[C@]2(CC1)C(c1ccc(OCc3ccncc3)cc1)=Cc1ccccc12` [Example 349, (1s,4s)-4-(3-chloroanilino)-2′-{4-[(pyridin-4-yl)methoxy]phenyl}spiro[cyclohexane-1,1′-indene]-4-carboxylic acid], 3590 nM. In the case of `O=C(O)[C@]1(Nc2cccc(Cl)c2)CC[C@]2(CC1)C(c1ccc(OCc3cccnc3)cc1)=Cc1ccccc12` [Example 350, (1s,4s)-4-(3-chloroanilino)-2′-{4-[(pyridin-3-yl)methoxy]phenyl}spiro[cyclohexane-1,1′-indene]-4-carboxylic acid] it was 1750 nM; in that of `O=C(O)[C@]1(Nc2cccc(Cl)c2)CC[C@]2(CC1)C(c1ccc(Oc3cccnc3)cc1)=Cc1ccccc12` [Example 351, (1s,4s)-4-(3-chloroanilino)-2′-{4-[(pyridin-3-yl)oxy]phenyl}spiro[cyclohexane-1,1′-indene]-4-carboxylic acid], 544 nM. Next, `O=C(O)[C@]1(Nc2cccc(Cl)c2)CC[C@@]2(CC1)c1ccccc1C[C@H]2c1ccc(-c2ccccc2)o1` [Example 356, (1r,2′R,4R)-4-(3-chloroanilino)-2′-(5-phenylfuran-2-yl)-2′,3′-dihydrospiro[cyclohexane-1,1′-indene]-4-carboxylic acid]: 476 nM; `O=C(O)[C@]1(Nc2cccc(Cl)c2)CC[C@@]2(CC1)c1ccccc1C[C@@H]2c1ccc(-c2ccccc2)o1` [Example 357, (1r,2′S,4S)-4-(3-chloroanilino)-2′-(5-phenylfuran-2-yl)-2′,3′-dihydrospiro[cyclohexane-1,1′-indene]-4-carboxylic acid]: 15400 nM. With `O=C(O)[C@]1(Nc2cccc(Cl)c2)CC[C@@]2(CC1)c1ccccc1C[C@@H]2c1ccc(Oc2ccccc2)cc1` [Example 359, (1r,2′R,4R)-4-(3-chloroanilino)-2′-(4-phenoxyphenyl)-2′,3′-dihydrospiro[cyclohexane-1,1′-indene]-4-carboxylic acid], the inhibitory constant (Ki) was 2140 nM. In the case of `O=C(O)[C@]1(Nc2cccc(Cl)c2)CC[C@]2(CC1)C(C1=CCN(Cc3ccccc3)CC1)=Cc1ccccc12` [Example 360, (1r,4r)-2′-(1-benzyl-1,2,3,6-tetrahydropyridin-4-yl)-4-(3-chloroanilino)spiro[cyclohexane-1,1′-indene]-4-carboxylic acid] it was 17500 nM. Regarding `O=C(O)[C@]1(Nc2cccc(Cl)c2)CC[C@]2(CC1)C(c1cc3c(-c4ccncc4)cccc3o1)=Cc1ccccc12` [Example 361, (1s,4s)-4-(3-chloroanilino)-2′-[4-(pyridin-4-yl)-1-benzofuran-2-yl]spiro[cyclohexane-1,1′-indene]-4-carboxylic acid], the Ki was 14800 nM.

As for `COc1ccc2c(c1)[C@]1(CC[C@@](Nc3cccc(Cl)c3)(C(=O)O)CC1)C(c1cccc(C)c1)=C2` [Example 366, (1r,4r)-4-(3-chloroanilino)-6′-methoxy-2′-(3-methylphenyl)spiro[cyclohexane-1,1′-indene]-4-carboxylic acid], the Ki was 1390 nM. For `O=C(O)[C@]1(Nc2cccc(Cl)c2)CC[C@@]2(CC1)c1ccccc1CC2c1ccc(Oc2cccnc2)cc1` (stereo partly drawn) [Example 367, (1r,4r)-4-(3-chloroanilino)-2′-{4-[(pyridin-3-yl)oxy]phenyl}-2′,3′-dihydrospiro[cyclohexane-1,1′-indene]-4-carboxylic acid], the Ki is 443 nM.

For `O=C(O)C1(Nc2cccc(Cl)c2)CCC2(CC1)c1ccccc1CC2c1ccc(OCc2cccnc2)cc1` (stereo not drawn) [Example 368, (1r,4r)-4-(3-chloroanilino)-2′-{4-[(pyridin-3-yl)methoxy]phenyl}-2′,3′-dihydrospiro[cyclohexane-1,1′-indene]-4-carboxylic acid], the Ki was 1320 nM. Turning to `O=C(O)[C@]1(Nc2cccc(Cl)c2)CC[C@]2(CC1)C(c1cc3cc(-c4ccncc4)ccc3o1)=Cc1ccccc12` [Example 375, (1s,4s)-4-(3-chloroanilino)-2′-[5-(pyridin-4-yl)-1-benzofuran-2-yl]spiro[cyclohexane-1,1′-indene]-4-carboxylic acid], the Ki worked out at 4790 nM. In the case of `O=C(O)[C@]1(Nc2cccc(Cl)c2)CC[C@]2(CC1)C(c1cccc(Oc3ccncc3)c1)=Cc1ccccc12` [Example 377, (1s,4s)-4-(3-chloroanilino)-2′-{3-[(pyridin-4-yl)oxy]phenyl}spiro[cyclohexane-1,1′-indene]-4-carboxylic acid] it was 74.3 nM; in that of `O=C(O)[C@]1(Nc2cccc(Cl)c2)CC[C@@]2(CC1)c1ccccc1CC2CCCCc1ccccc1` (stereo partly drawn) [Example 394, (1r,4r)-4-(3-chloroanilino)-2′-(4-phenylbutyl)-2′,3′-dihydrospiro[cyclohexane-1,1′-indene]-4-carboxylic acid], 134 nM; in that of `O=C(O)[C@]1(Nc2cccc(Cl)c2)CC[C@]2(CC1)C(CCOCc1ccccc1)=Cc1ccccc12` [Example 395, (1r,4r)-2′-[2-(benzyloxy)ethyl]-4-(3-chloroanilino)spiro[cyclohexane-1,1′-indene]-4-carboxylic acid], 101 nM. For the molecule `O=C(O)[C@]1(Nc2cccc(Cl)c2)CC[C@@]2(CC1)c1ccccc1CC2CCOCc1ccccc1` (stereo partly drawn) [Example 396, (1r,4r)-2′-[2-(benzyloxy)ethyl]-4-(3-chloroanilino)-2′,3′-dihydrospiro[cyclohexane-1,1′-indene]-4-carboxylic acid], the inhibitory constant (Ki) came to 321 nM. In the case of `O=C(O)[C@]1(Nc2cccc(Cl)c2)CC[C@@]2(CC1)c1ccccc1CC2CCCSc1ccccc1` (stereo partly drawn) [Example 397, (1r,4r)-4-(3-chloroanilino)-2′-[3-(phenylsulfanyl)propyl]-2′,3′-dihydrospiro[cyclohexane-1,1′-indene]-4-carboxylic acid] it was 598 nM; in that of `O=C(O)[C@]1(Nc2cccc(Cl)c2)CC[C@@]2(CC1)c1ccccc1CC2CCCS(=O)(=O)c1ccccc1` (stereo partly drawn) [Example 398, (1r,4r)-2′-[3-(benzenesulfonyl)propyl]-4-(3-chloroanilino)-2′,3′-dihydrospiro[cyclohexane-1,1′-indene]-4-carboxylic acid], 1310 nM. Next, `O=C(O)[C@]1(Nc2cccc(Cl)c2)CC[C@@]2(CC1)c1ccccc1CC2CCCSc1ccncc1` (stereo partly drawn) [Example 399, (1r,4r)-4-(3-chloroanilino)-2′-{3-[(pyridin-4-yl)sulfanyl]propyl}-2′,3′-dihydrospiro[cyclohexane-1,1′-indene]-4-carboxylic acid]: 299 nM; `O=C(O)[C@]1(Nc2cccc(Cl)c2)CC[C@@]2(CC1)c1ccccc1CC2OCCCc1ccccc1` (stereo partly drawn) [Example 400, (1s,4s)-4-(3-chloroanilino)-2′-(3-phenylpropoxy)-2′,3′-dihydrospiro[cyclohexane-1,1′-indene]-4-carboxylic acid]: 917 nM; `Cc1cnccc1CCCOC1Cc2ccccc2[C@]12CC[C@@](Nc1cccc(Cl)c1)(C(=O)O)CC2` (stereo partly drawn) [Example 401, (1s,4s)-4-(3-chloroanilino)-2′-[3-(3-methylpyridin-4-yl)propoxy]-2′,3′-dihydrospiro[cyclohexane-1,1′-indene]-4-carboxylic acid]: 320 nM.

On to `O=C(NCCc1ccncc1)C1=Cc2ccccc2[C@]12CC[C@@](Nc1cccc(Cl)c1)(C(=O)O)CC2` [Example 402, (1s,4s)-4-(3-chloroanilino)-2′-{[2-(pyridin-4-yl)ethyl]carbamoyl}spiro[cyclohexane-1,1′-indene]-4-carboxylic acid], for which the inhibition constant (Ki) turned out to be 18800 nM.

On to `CN(CCc1ccncc1)C(=O)C1=Cc2ccccc2[C@]12CC[C@@](Nc1cccc(Cl)c1)(C(=O)O)CC2` [Example 403, (1s,4s)-4-(3-chloroanilino)-2′-{methyl[2-(pyridin-4-yl)ethyl]carbamoyl}spiro[cyclohexane-1,1′-indene]-4-carboxylic acid], for which the Ki stood at 8210 nM.
